Reference: US20220267394A1, “COMPOUNDS FOR INDUCING TISSUE FORMATION AND USES THEREOF” (HISTIDE AG, priority 2015, published 2022)
Where no end group is shown, it is not given here.

Key:
[1] = system: Human Hematopoeitic Stem Cells; assay: Differentiation of human hematopoietic stem cells: CD34+ expression by immunostaining; format: cell-based; conditions: peptides in solution in the cell culture media, 400 ng/mL, 48 hours
Text: (§1) The following starting materials and reagents were used: • Apatite ceramics (also called apatite or ceramic in the present invention) were synthetized as described in Mater Res. 2004; 7(4): 625-630. • Titanium was obtained from Goodfellow®. • Hydrogel (poly(acrylamide-co-acrylic acid) gel) was synthetized as described in Langmuir 2011; 27(22):13635-42. • PEEK was obtained from Goodfellow®. • PET (Poly(ethylene terephthalate) was obtained from Goodfellow®. • Type-I collagen sponge was obtained from Sigma®. • Hexane was obtained from Sigma®. • 3-succinimidyl-3-maleimidopropionate (SMP) was obtained from Sigma®. • DMF was obtained from Sigma®. • PBS 1× was obtained from Gibco®. • 3-(ethoxydimethylsilyl)propylamine was obtained from Sigma®. • Ammonium persulfate was obtained from Biorad®. • N,N,N′,N′-tetramethylethylenediamine was obtained from Aldrich®. • Acrylamid was obtained from Merck®. • Acrylic acid was obtained from Merck®. • N,N-methylene-bis-acrylamide was obtained from Merck®. • NaOH was obtained from Aldrich®. • N,N,N′,N′-tetramethylethylenediamine was obtained from Aldrich®. • Dimethylaminopropyl-3-ethylcarbodiimide hydrochloride was obtained from Aldrich®. • N-hydroxysuccinimide was obtained from Aldrich®. • 2-(N-morpholino)-ethane sulfonic acid was obtained from Aldrich®. • MilliQ water: is water characterised in terms of resistivity (typically 18.2 MΩ·cm at 25° C.). • Low glucose Dulbecco's Modified Eagle Medium (DMEM) was obtained from Invitrogen® • Minimum Essential Medium Eagle without ascorbic acid (αMEM) was obtained from Invitrogen®. • All of the cell culture experiments were carried out without any serum in the medium for the first 8 hours of culture. • Osteoblast progenitors or precursor osteoblasts: MC3T3-E1 cells were obtained from ATCC®. These cells were cultured in Alpha-MEM medium supplemented with 10% fetal calf serum (FCS) and 1% penicillin/streptomycin. All cells were used at a low passage number (passage 7), were subconfluently cultured and were seeded at 10^4 cells/cm^2 for the purpose of the experiments. • Human bone marrow Mesenchymal Stem Cells (hMSCs) were obtained from Lonza®. These cells were cultured in Alpha-MEM supplemented with 10% (v/v) FBS and 1% penicillin/streptomycin and incubated in a humidified atmosphere containing 5% (v/v) CO2 at 37° C. All cells were used at a low passage number (passage 2 to 4), were subconfluently cultured and were seeded at 10^4 cells/cm^2 for the purpose of the experiments. • Human adipose Mesenchymal Stem Cells (haMSCs) were obtained from Lonza®. These cells were cultured in Alpha-MEM supplemented with 10% (v/v) FBS and 1% penicillin/streptomycin and incubated in a humidified atmosphere containing 5% (v/v) CO2 at 37° C. All cells were used at a low passage number (passage 3 to 4), were subconfluently cultured and were seeded at 10^4 cells/cm^2 for the purpose of the experiments. • Mouse Hair Follicle Stem Cells were isolated and cultured as described in Methods Mol Biol. 2010; 585:401-20. • Neuron cells are Neuronal Schwann Cells obtained from ATCC®. These cells were cultured in Dulbecco's Modified Eagle's Medium supplemented with 10% (v/v) FBS and 1% penicillin/streptomycin and incubated in a humidified atmosphere containing 5% (v/v) CO2 at 37° C. All cells were used at a low passage number (passage 6-8), were subconfluently cultured and were seeded at 10^4 cells/cm^2 for the purpose of the experiments. • Human umbilical-vein endothelial cells (HUVECs) were purchased from Promocell®. HUVECs were isolated and grown on gelatin coated culture flasks in a complete HUVEC culture medium (IMDM (Invitrogen, France) supplemented with 20% (v/v) fetal bovine serum (FBS) (PAA, France) and 0.4% (v/v) EC growth supplement/heparin kit (Promocell, France)). Cells were subcultured by using trypsin/EDTA (Invitrogen, France) and maintained in a humidified atmosphere containing 5% CO2 at 37° C. These cells were used at a passage number 3 to 5 for the purpose of the experiments. […]

hMSCs [2] = assay: Loss of stemness: STRO-1 expression by immunostaining; format: cell-based, human
How it was run: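 hMSCs cultured on plastic with GFR-binding peptides in solution (some sequences tested with a bioactive carrier), then fixed, permeabilized and immunostained for Stro-1. Stro-1-positive contact number and area quantified by thresholded image analysis, minimum 30 cells per condition.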

Hair Follicle Stem Cells = assay: Loss of quiescence and activation of hair follicle stem cells on 73 kPa hydrogels (Sox2, BMP-6 release); format: cell-based, mouse; conditions: 73 kPa hydrogels covalently modified with peptides
Text: as §1, with “C.” for “C. All cells were used at a low passage number (passage 3 to 4), were subconfluently cultured and were seeded at 10^4 cells/cm^2 for the purpose of the experiments. • Mouse Hair Follicle Stem Cells were isolated and cultured as described in Methods Mol Biol. 2010; 585:401-20. • Neuron cells are Neuronal Schwann Cells obtained from ATCC®. These cells were cultured in Dulbecco's Modified Eagle's Medium supplemented with 10% (v/v) FBS and 1% penicillin/streptomycin and incubated in a humidified atmosphere containing 5% (v/v) CO2 at 37° C. All cells were used at a low passage number (passage 6-8), were subconfluently cultured and were seeded at 10^4 cells/cm^2 for the purpose of the experiments. • Human umbilical-vein endothelial cells (HUVECs) were purchased from Promocell®. HUVECs were isolated and grown on gelatin coated culture flasks in a complete HUVEC culture medium (IMDM (Invitrogen, France) supplemented with 20% (v/v) fetal bovine serum (FBS) (PAA, France) and 0.4% (v/v) EC growth supplement/heparin kit (Promocell, France)). Cells were subcultured by using trypsin/EDTA (Invitrogen, France) and maintained in a humidified atmosphere containing 5% CO2 at 37° C. These cells were used at a passage number 3 to 5 for the purpose of the experiments.”

hMSCs [3] = assay: CD-105 expression by immunostaining; format: cell-based, human; conditions: Table 7, previously reported peptides in solution (not combined with a bioactive carrier)
Experimental: For this type of quantification the freeware image analysis ImageJ® software was used. The raw image was first converted to an 8-bit file, and then the unsharp mask feature was used (settings 1:0.2) to remove the image background (rolling ball radius 10). After smoothing, the resulting image, which appears similar to the original photomicrograph but with minimal background, was then converted to a binary image by setting a threshold. Threshold values were determined empirically by selecting a setting, which gave the most accurate binary image for a subset of randomly selected photomicrographs. The cell area was determined by manual delineation on raw fluorescent images. Total contact area and mean contact area per cell were calculated by “analyse particules” in ImageJ®. A minimum of 30 cells per condition were analyzed. Stro-1, CD-34+, and CD-105 expressions were determined using this procedure.
Likewise, using the method detailed in the description, the RMSD of another 27 previously reported peptide sequences have been determined (Table 7) and correlated with the expressions of STRO-1 and CD-105 in solution. […] Data were obtained with peptides in solution (i.e. not combined with a bioactive carrier).

[4] = Table 8, SEQ ID NO: 1 to 49 tested in combination with a bioactive carrier (titanium, ceramics, collagen, etc.)
[5] = Table 7, previously reported peptides in solution (not combined with a bioactive carrier)
[6] = Table 8, SEQ ID NO: 2242 to 2267 tested in solution
[7] = Table 6, previously reported peptides in solution, 400 ng/mL

2151 (PTSSVPTGGRSVKMAKVDKGVVTYKEVQVMVVAESKSS; GFR-binding peptide) [compound 2151]
CD34+ Expression (%) [1]: 24%

2147 (IPKASSAPVGQRPVQMRKIDKGVVTYKKATVSSVEESGSL; GFR-binding peptide) [compound 2147]
CD34+ Expression (%) [1]: 27%

2148 (KASSVPQEERPVQMRKIGGGGGGGKKATVMIVRSSKSS; GFR-binding peptide) [compound 2148]
CD34+ Expression (%) [1]: 32%

2152 (IPKASSVPQSSSNITMQIMGGGGGGGIGEMSSSVKSSGSL; GFR-binding peptide) [compound 2152]
CD34+ Expression (%) [1]: 30%

2154 (VPTAAEPLTMLYYEIVRKKPIFEQLSNMVEHS; GFR-binding peptide) [compound 2154]
CD34+ Expression (%) [1]: 21%

42 (CGIPEPSSVPEKTSSLSLLFFDENKNVVLKVYPNM; not fully specified; ends and bridges not checked) [compound 42]
STRO-1 expression (%) (hMSCs [2]; [4]): 28% | BMP-6 release in the cell culture medium (Hair Follicle Stem Cells): decrease | Sox2 protein expression (Hair Follicle Stem Cells): increase

2238 (CCAPTELSAISVLYFDDSSNVILKKYEDMVVEACGCR; Comparative sequence) [compound 2238]
CD-105 expression (%) (hMSCs [3]): 72% | STRO-1 expression (%) (hMSCs [2]; [5]): 76%

2149 (VSQAARPVQTRKIDDMGVPTKKATVAAVKS; GFR-binding peptide) [compound 2149]
CD34+ Expression (%) [1]: 28%

CGIPEPSSVPEKMSSLSILFFDENKNVVLKVYPNM (CGIPEPXXVPEKMSSLSILFFDENKNVVLKVYPNM; GFR-binding peptide; MOD_RES (7), (8): Xaa is C or S) [SEQ ID NO: 41]
BMP-6 release in the cell culture medium (Hair Follicle Stem Cells): decrease | Sox2 protein expression (Hair Follicle Stem Cells): increase

2157 (EPSSVSQAAEPLPIVYYRIKPHQGQHEQLSNMIVKSSKSS; GFR-binding peptide) [compound 2157]
CD34+ Expression (%) [1]: 23%

2230 (CCVPERLSPISVLFFDNEDNVVLRHYEDMVVDECGCR; Comparative sequence) [compound 2230]
CD-105 expression (%) (hMSCs [3]): 78% | STRO-1 expression (%) (hMSCs [2]; [5]): 81%

2156 (APVKMEPLPTVYYDDMGVPTEQLSNDMVEESGSL; GFR-binding peptide) [compound 2156]
CD34+ Expression (%) [1]: 25%

2155 (EPSSSRVRLEPLTTLYYGGGGGGGEQLSNVVEEHSKSS; GFR-binding peptide) [compound 2155]
CD34+ Expression (%) [1]: 29%

2235 (APTALSAISMLYFDESGNVVLRQYEDMVVEG; Peptide reported in US20120244575, SEQ ID NO:4400) [compound 2235]
CD-105 expression (%) (hMSCs [3]): 63% | STRO-1 expression (%) (hMSCs [2]; [5]): 77%

2150 (PTSSAPTDLRSVKMAKVEIVRKKPIFKEVQVDMVVKASGSH; GFR-binding peptide) [compound 2150]
CD34+ Expression (%) [1]: 26%

2264 (KIPKASSVPQELEPLPIVYYDENEKVVEQLSNDMVRSGSGSR; GFR-binding peptide) [compound 2264]
STRO-1 expression (%) (hMSCs [2]; [6]): 24%

2197 (LSLLAPPEPVWNHETSYGSDCHVPTNVNAISKMIDKSNHQTG; Peptide reported in US20140130203, SEQ ID NO:119179) [compound 2197]
STRO-1 expression (%) (hMSCs [2]; [7]): 93%

1 (CKVPKPSSAPTQLSAISTLYLDEYDKVVLKNYQNMVVRA; not fully specified; ends and bridges not checked) [compound 1]
STRO-1 expression (%) (hMSCs [2]; [4]): 26%

2259 (TQVAARPVQTRKIDDMGVPTKKATVAAEDH; GFR-binding peptide) [compound 2259]
STRO-1 expression (%) (hMSCs [2]; [6]): 23%

2261 (NDEGLESVPTGQSPISILYIRIKPHQGQHYKQYELEEHSQSESR; GFR-binding peptide) [compound 2261]
STRO-1 expression (%) (hMSCs [2]; [6]): 17%

13 (CSIPKASSVPTELSATSVLYYDEYDEKVVLRKHEMVVEG; not fully specified; ends and bridges not checked) [compound 13]
STRO-1 expression (%) (hMSCs [2]; [4]): 23%

2184 (SATSRLALSDVPAELAA; Peptide reported in WO2013040142, SEQ ID NO:729730) [compound 2184]
STRO-1 expression (%) (hMSCs [2]; [7]): 98%

2244 (VPTVVSAISTLYLRIKPHQGQHLKNYQVVVVE; GFR-binding peptide) [compound 2244]
STRO-1 expression (%) (hMSCs [2]; [6]): 21%

2153 (KASSSRVKMSNITVQIMRIKPHQGQHIGEMSVVEEHASGSH; GFR-binding peptide) [compound 2153]
CD34+ Expression (%) [1]: 22%

2243 (VPEAASSLSMLFFEIVRKKPIFLKVYPAATVE; GFR-binding peptide) [compound 2243]
STRO-1 expression (%) (hMSCs [2]; [6]): 19%

2174 (CVTKPLSSLLFPNWNTTTTPTPP; Peptide reported in WO2013040142, SEQ ID NO:642255) [compound 2174]
STRO-1 expression (%) (hMSCs [2]; [7]): 92%

2160 (PIIYYVGRNVRVEQLSNMVVRRA; Comparative sequence) [compound 2160]
STRO-1 expression (%) (hMSCs [2]; [7]): 98%

2169 (IKSPARHSAPTHQEPLP; Peptide reported in WO2013040142, SEQ ID NO:3157977) [compound 2169]
STRO-1 expression (%) (hMSCs [2]; [7]): 98%

2215 (VPQTLDPLPIIYYVGRNVRVEQLSNMVVRA; Comparative sequence) [compound 2215]
CD-105 expression (%) (hMSCs [3]): 68% | STRO-1 expression (%) (hMSCs [2]; [5]): 71%

2240 (KPCCAPTELSAISVLYFDDSSNVILKKYEDMVVEACGCR; Peptide reported in US20050250936, SEQ ID NO:119) [compound 2240]
CD-105 expression (%) (hMSCs [3]): 69% | STRO-1 expression (%) (hMSCs [2]; [5]): 73%

2194 (KGSEYEKLVVSGITQVYQSSLSWHGCKSCCEVQVXNLXILIRLYDVHYYN; Peptide reported in US20040172684, SEQ ID NO:47782; MOD_RES (35), (38): Xaa is A) [compound 2194]
STRO-1 expression (%) (hMSCs [2]; [7]): 88%
